Measured values: US20190284192A1, “NITROGENOUS MACROCYCLIC COMPOUND, PREPARATION METHOD THEREFOR, PHARMACEUTICAL COMPOSITION AND APPLICATION THEREOF” (LUOXIN PHARMACEUTICAL (SHANGHAI) CO., LTD., priority 2016, published 2019)
Values joined by “and” are separate entries in the source; they are usually repeats but may differ in a detail not shown here. Equal entries are not always repeated.

Columns and labels:
[1] = Body weight of MV-4-11 tumor-bearing mice during treatment; type: in vivo; settings: for Average RCBW, Treatment end Day 15: relative body weight change vs Day 1; for Average RCBW, Treatment end Day 15 / Average body weight, Treatment end Day 15 / Average body weight, Treatment start Day 1: intragastric QD*14, ABBV-075 3, GSK762 15, 4009 10 mg/kg; for Average body weight, Treatment end Day 15 / Average body weight, Treatment start Day 1: x ± SEM
Description: The preparation and any revision of this experimental protocol are carried out in accordance with the evaluation criteria of the “Institute for Animal Care and Use (IACUC)” of Shanghai Chempartner Chemical Research Co., Ltd. The use and welfare of laboratory animals are carried out in accordance with the provisions of the Association for Assessment and Accreditation of Laboratory Animal Care (AAALAC). Animals are monitored daily for health and death. Routine examinations include observations of the effects of the test substance and the drug on the daily behavior of the animal such as behavioral activities, intake of water and feeds, weight change (three weights measured weekly), appearance signs or other anormal circumstance. The number of animal deaths and side effects in the group were recorded based on the number of animals in each group.

[2] = system: MV-4-11 subcutaneous xenograft tumor; assay: Anti-tumor efficacy in vivo, MV-4-11 subcutaneous xenograft model; design: species or system BALB/c nude mice; settings: for anti-tumor effect on the MV-4-11 cell xenograft tumor mouse model: ABBV-075 3 mg/kg, GSK762 15 mg/kg, 4009 10 mg/kg; for anti-tumor effect on the MV-4-11 cell xenograft tumor mouse model / T/C % / Average tumor weight, 15th day of treatement / Average tumor volume, Treatement starts 1st day / Tumor volume TGI (%) 4th day / Tumor volume TGI (%) 6th day / Tumor volume TGI (%) 8th day / Tumor volume TGI (%) 11th day / Tumor volume TGI (%) 13th day / Tumor volume TGI (%) 15th day / Average tumor volume, Treatement ends 15th day: intragastric QD*14; for T/C %: TRTV/CRTV; for T/C % / P, tumor volume difference between the control group and the administrated group / Average tumor weight, 15th day of treatement / Average tumor volume, Treatement starts 1st day / Tumor volume TGI (%) 4th day / Tumor volume TGI (%) 6th day / Tumor volume TGI (%) 8th day / Tumor volume TGI (%) 11th day / Tumor volume TGI (%) 13th day / Tumor volume TGI (%) 15th day / Average tumor volume, Treatement ends 15th day: ABBV-075 3, GSK762 15, 4009 10 mg/kg; for T/C % / Tumor volume TGI (%) 15th day / Average tumor volume, Treatement ends 15th day: 15th day; for P, tumor volume difference between the control group and the administrated group: Two-way Anova Bonferroni post-test; for Average tumor volume, Treatement ends 15th day: 10 mg/kg
Description: According to the growth of the cells, the treatment was passaged twice a week. When the cells are in the exponential growth phase, the cells are collected, counted, and inoculated.
Experimental protocol: 0.2 mL of cell suspension containing about 5×10^MV-4-11 cells (cell suspended in IMDM medium and added with 50% Matrigel) was inoculated subcutaneously into the right back of each mouse. Group administration was initiated when the average tumor volume reached approximately 136.94 mm^3 (day 15 post inoculation). Grouping method: Animals were weighed before dosing and tumor volume was measured. Grouping designed based on tumor volume.
The experimental indicator is to investigate whether tumor growth can be inhibited, delayed or cured. Tumor diameters were measured with vernier calipers three times a week. The formula for calculating tumor volume is: V=0.5×a×b^2, a and b represent the long and short diameters of the tumor, respectively. The antitumor effect of the compound was evaluated by T/C (%). T/C %=TRTV/CRTV×100% (TRTV: treatment group RTV; CRTV: negative comparative group RTV). The relative tumor volume RTV is calculated as RTV=Vt/V1. Where V1 is the measured tumor volume at the time of group administration (i.e., Day 1), and Vt is the tumor volume at each measurement.
The tumor volume and tumor size were analysed by statistical software. GraphPad Prism software was used for analyzation, p<0.05 is considered to have significant difference, p<0.01 is considered to have extremely significant difference.
Two-way Anova Bonferroni post-test is used to compare the tumor volume difference between the control group and the treatment group.

[3] = system: SU-DHL-6 cells; assay: Inhibitory effect on SU-DHL-6 cells (CellTiter-Glo); type: cell-based; settings: Homo sapiens; 72 hours, CellTiter-Glo; read-out: SU-DHL-6
Description: Determinations of the inhibition of the compounds from the above embodiments against SU-DHL-6 cells, the detailed operation steps are as followed:
The 1st Day: Seed the Cells on the Plate
1. The cells were verified that they were in good conditions by observation under microscope;
2. The cells were transferred to a centrifuge tubes, after centrifuged at 1000 rpm for 5 min, the supernatant was discarded;
3. The complete substrate (1640+10% FBS) was added, then blown and patted into single cell suspension, counted by Vi-cell cytometer, the cell suspension was adjusted to desired cell density by the complete medium.
4. The cells were inoculated into a 96 well plate, the cell number was 12000/well at 100 μL per well, 100 μL complete medium was added into the black control;
5. 37° C., 5% CO2 culture overnight.
The 2nd Day: Addition of the Drugs
1. 1000× Compound Plate Preparation
1.1. The test compound was prepared into 10 mM working solution by using DMSO. Then the STS was prepared into 2 mM working solution by using DMSO.
1.2. In the round bottom 96 wells plate, the column 2 of row A to H was added into 60 μL 10 mM test compound (or STS) working solution, columns 3-11 were added into 40 μL DMSO, 20 μL drug solution was pipetted from the column 2 to the column 3, blown and patted for a homogeneous mixture; then 20 μL solution was pipetted from the column 3 to the column 4, blown and patted for a homogeneous mixture, sequently, the drug was diluted by 3 times, 10 concentrations in total. The columns 1 and 12 were supplemented with 40 μL of DMSO.
2. Intermediate plate preparation
A sterile V-bottom 96 deep well plate was used and in each well, 495 μL FBS-free PRMI 1640 medium was added, then 5 μL of the diluted compound (or DMSO) in the 1000× compound plate was pipetted into corresponding position of the V-bottom 96 well plate, blown and patted evenly.
3.1. The cell plate was taken out from the incubator and was observed under microscope. The diluted compound or DMSO in the intermediate plate was added into the cell plate, 11 μL each well.
3.2. The cell was continued to be cultured at 37° C., 5% CO2 for 72 hours.
The 5th Day: CellTiter-Glo Detection of the Cell Activity
1. The CellTiter-Glo buffer and the reaction substrate were taken out from the refrigerator, after balanced to r.t., the buffer was poured into a brown bottle containing the substrate, the bottle was upside down to have the substrate powder sufficientaly dissolved.
2. The cell was observed under microscope; the cell plate was balanced to r.t.
3. The prepared CellTiter-Glo was added into the 96 well plate, at 100 μL/well.
4. The cell plate was placed on a shaker for 10 min, followed by standing at r.t. for 10 min.
5. A white seal film was attached to the bottom of the well plate, and the chemiluminescence signal of each well was detected by the Enspire microplate detector.
6. XLfit was used for data processing. Inhibition rate %=(d-c)/(d-b)×100, while d is the signal value of the DMSO treated group, c is the signal value of the compound treated group, b is signal value of the blank control that only containing medium and DMSO without cells. The data was fitted using the f (x)205[fit=(A+((B−A)/(1+((C/x)^∧D))))] equation in the XLfit software.

[4] = target: T1, BRD4 (BD2) (Homo sapiens, UniProt O60885); assay: BRD4 (BD2) bromodomain binding, HTRF; settings: 2 h incubation at r.t.
T1 construct: Each member comprises two tandem bromodomains (BD1 and BD2) for recognizing the acetylated lysine residues

Row | Compound | Average RCBW, Treatment end Day 15 [1] [%] | Average body weight, Treatment end Day 15 [1] [g] | Average body weight, Treatment start Day 1 [1] [g] | anti-tumor effect on the MV-4-11 cell xenograft tumor mouse model [2] | T/C % [2] [%] | P, tumor volume difference between the control group and the administrated group ([2]; day 1 after administration) | P, tumor volume difference between the control group and the administrated group ([2]; day 4 after administration) | P, tumor volume difference between the control group and the administrated group ([2]; day 6 after administration) | P, tumor volume difference between the control group and the administrated group ([2]; day 8 after administration) | P, tumor volume difference between the control group and the administrated group ([2]; day 11 after administration) | P, tumor volume difference between the control group and the administrated group ([2]; day 13 after administration) | P, tumor volume difference between the control group and the administrated group ([2]; day 15 after administration) | Average tumor weight, 15th day of treatement [2] [g] | Average tumor volume, Treatement starts 1st day [2] [mm^3] | Tumor volume TGI (%) 4th day [2] [%] | Tumor volume TGI (%) 6th day [2] [%] | Tumor volume TGI (%) 8th day [2] [%] | Tumor volume TGI (%) 11th day [2] [%] | IC50 [3] [nM] | IC50 [4] [nM] | other results
1 | CCS(=O)(=O)Cc1ccc2c(c1)-c1cn(C)c(=O)cc1CN=C2c1ccc(F)cc1 [Compound 4009, 7-(4-fluorophenyl)-2-methyl-10-(ethylsulfonemethyl)-2H-benzo[c]pyrido[3,4-e]azepin-3(5H)-ketone] | 2.82 | 21.88 ± 0.73 | 21.26 ± 0.38 | significant anti-tumor effect | 30.13 | P > 0.05 | P > 0.05 | P > 0.05 | P > 0.05 | P < 0.001 (***) | P < 0.001 (***) | P < 0.001 (***) | 0.276 ± 0.08 | 136.78 ± 14.97 | 81.27 | 75.63 | 79.64 | 83.17 | 83 | 5 | body weight and condition of mice during the entire administration period ([1]; 4009 10 mg/kg intragastric QD*14): did not decrease in body weight; Tumor volume TGI (%) 13th day [2]: 81.77%; Tumor volume TGI (%) 15th day [2]: 81.16%; Average tumor volume, Treatement ends 15th day [2]: 305.80 mm^3 and 305.80 ± 81.48 mm^3
2 | CCS(=O)(=O)Nc1ccc(Oc2ccc(F)cc2F)c(-c2cn(C)c(=O)c3[nH]ccc23)c1 [ABBV-075] | 2.72 | 21.95 ± 0.36 | 21.36 ± 0.21 | significant anti-tumor effect | 34.24 | P > 0.05 | P > 0.05 | P > 0.05 | P > 0.05 | P < 0.01 (***) | P < 0.01 (***) | P < 0.01 (***) | 0.314 ± 0.05 | 136.45 ± 14.05 | 97.12 | 69.45 | 73.8 | 72.41 | 21 | 1 | Tumor volume TGI (%) 13th day [2]: 75.81%; Tumor volume TGI (%) 15th day [2]: 75.56%; Average tumor volume, Treatement ends 15th day [2]: 346.72 mm^3 and 346.72 ± 68.96 mm^3
3 | CCS(=O)(=O)Cc1ccc2c(c1)-c1cn(C)c(=O)cc1[C@H](C)N=C2c1ccc(F)cc1 [Compound 4026, (S)-10-((ethylsulfone)methyl)-7-(4-fluorophenyl)-2,5-dimethyl-2,5-dihydro-3H-benzo[c]pyrido[3,4-e]azepin-3-ketone] | – | – | – | – | – | – | – | – | – | – | – | – | – | – | – | – | – | – | 10 | 1 | –
